One experiment relates to T1, AiiADH82.
T1 construct: gene aiiA; full length, pET28a NdeI/XhoI, His6 at N- and C-terminus, E. coli BL21, Ni-NTA; primer-encoded start MTVKKLYF
As to the kind of experiment: UPLC-QTOF MS of residual AHL (m/z […]), Lineweaver-Burk. The experiment is classed as biochemical, Bacillus velezensis. The settings on record: pH 6.5, 28 °C, 45 min; substrate 200-350 µM (far below the printed Km).

Another experiment addresses T2, YtnPDH82 (Bacillus velezensis, UniProt A7Z7T2).
T2 construct: gene RBAM_027000; full length, pET28a EcoRI/XhoI, His6 at N- and C-terminus, E. coli BL21, Ni-NTA; primer-encoded start METLNIGNF
The description is as above. The settings on record: pH 6.5, 28 °C, 45 min; substrate 200-350 µM (far below the printed Km). The experiment is classed as biochemical.

Km data for one molecule are collected here from paper PMC12388617, “Development and Biochemical Characterization of Quorum Quenching Enzyme from Deep-Sea Bacillus velezensis DH82” (Microorganisms, 2025).

T2 sequence (A7Z7T2 entry or part of it): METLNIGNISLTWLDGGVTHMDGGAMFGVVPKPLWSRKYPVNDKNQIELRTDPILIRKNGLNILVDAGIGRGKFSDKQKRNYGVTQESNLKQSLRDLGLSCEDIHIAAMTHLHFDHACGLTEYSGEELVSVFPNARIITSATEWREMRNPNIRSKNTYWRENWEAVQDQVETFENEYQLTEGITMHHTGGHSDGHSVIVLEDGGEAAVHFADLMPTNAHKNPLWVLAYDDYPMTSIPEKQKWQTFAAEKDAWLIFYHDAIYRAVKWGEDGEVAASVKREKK

For the molecule `CCCC(=O)CC(=O)N[C@H]1CCOC1=O` [3-oxo-C6-HSL], the values for the Km with AiiADH82 and on YtnPDH82 were 7.8 mM and 15.3 mM, respectively.
